In PubChem BioAssay AID248 (DTP/NCI, 2004):
Values joined by “and” are separate entries in the source; they are usually repeats but may differ in a detail not shown here. Equal values may be shown once. Toxic doses and inconclusive results are not listed. Rule as the data show it: active = T/C of 150% or more; inactive = T/C below 125%. Bridge positions count the residues as written; N and C are the ends. Peptide text beside a SMILES is read from it. I, II: the chains in the order shown.

Tested on: L1210 leukemia ip in BDF1 mice, survival T/C
Experiment: NCI In Vivo Anticancer Drug Screen. Data for tumor model L1210 Leukemia (intraperitoneal) in B6D2F1 (BDF1) mice
Settings: endpoint: mean survival time, higher = longer survival
In short: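 Survival endpoint. Drug-treated group vs vehicle group, expressed as T divided by C. Tumor passaged by transplantation.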

[1] = dose: 100.0 mg/kg/injection, schedule: Q01DX001 (ip), vehicle: saline with Tween-80
[2] = dose: 100.0 mg/kg/injection, schedule: Q01DX009 (ip), vehicle: saline with Tween-80
[3] = dose: 200.0 mg/kg/injection, schedule: Q01DX001 (ip), vehicle: saline with Tween-80
[4] = dose: 200.0 mg/kg/injection, schedule: Q01DX009 (ip), vehicle: saline with Tween-80
[5] = dose: 400.0 mg/kg/injection, schedule: Q01DX001 (ip), vehicle: saline with Tween-80
[6] = dose: 100.0 mg/kg/injection, schedule: Q01DX001 (ip), vehicle: carboxymethylcellulose (CMC)
[7] = dose: 100.0 mg/kg/injection, schedule: Q04DX003 (ip), vehicle: saline with Tween-80
[8] = dose: 200.0 mg/kg/injection, schedule: Q01DX001 (ip), vehicle: carboxymethylcellulose (CMC)
[9] = dose: 200.0 mg/kg/injection, schedule: Q04DX003 (ip), vehicle: saline with Tween-80
[10] = dose: 400.0 mg/kg/injection, schedule: Q01DX001 (ip), vehicle: carboxymethylcellulose (CMC)
[11] = dose: 400.0 mg/kg/injection, schedule: Q04DX003 (ip), vehicle: saline with Tween-80
[12] = dose: 100.0 mg/kg/injection, schedule: Q04DX002 (ip), vehicle: Klucel (hydroxypropylcellulose) (HPC)
[13] = dose: 200.0 mg/kg/injection, schedule: Q04DX002 (ip), vehicle: Klucel (hydroxypropylcellulose) (HPC)
[14] = dose: 100.0 mg/kg/injection, schedule: Q01DX009 (ip), vehicle: Klucel (hydroxypropylcellulose) (HPC)
[15] = dose: 100.0 mg/kg/injection, schedule: Q04DX003 (ip), vehicle: Klucel (hydroxypropylcellulose) (HPC)
[16] = dose: 200.0 mg/kg/injection, schedule: Q01DX009 (ip), vehicle: Klucel (hydroxypropylcellulose) (HPC)
[17] = dose: 200.0 mg/kg/injection, schedule: Q04DX003 (ip), vehicle: Klucel (hydroxypropylcellulose) (HPC)
[18] = dose: 100.0 mg/kg/injection, schedule: Q01DX001 (ip), vehicle: saline
[19] = dose: 200.0 mg/kg/injection, schedule: Q01DX001 (ip), vehicle: saline
[20] = dose: 400.0 mg/kg/injection, schedule: Q01DX001 (ip), vehicle: saline
[21] = dose: 400.0 mg/kg/injection, schedule: Q01DX009 (ip), vehicle: Klucel (hydroxypropylcellulose) (HPC)
[22] = dose: 400.0 mg/kg/injection, schedule: Q04DX003 (ip), vehicle: Klucel (hydroxypropylcellulose) (HPC)

Measured: T/C

Nc1ccc(OCCCOc2ccccc2)cc1
inactive: [1] 102 % of control | [2] 101 % of control | [3] 102 % of control | [4] 112 % of control | [5] 97 % of control

CC1(c2cccs2)NC(=O)NC1=O (centres undefined)
inactive: [6] 95 % of control | [2] 102 % of control | [7] 105 % of control and 96 % of control | [8] 101 % of control | [4] 110 % of control | [9] 109 % of control and 96 % of control | [10] 97 % of control | dose: 400.0 mg/kg/injection, schedule: Q01DX009 (ip), vehicle: saline with Tween-80 109 % of control | [11] 107 % of control and 105 % of control

O=C(Nc1ccccc1)OC(C[N+](=O)[O-])C(Cl)(Cl)Cl (centres undefined)
inactive: dose: 75.0 mg/kg/injection, schedule: Q01DX001 (ip), vehicle: carboxymethylcellulose (CMC) 98 % of control

CN1CCCN(C)C1c1ccc(Cl)cc1
inactive: dose: 6.25 mg/kg/injection, schedule: Q04DX003 (ip), vehicle: saline 99 % of control | dose: 12.5 mg/kg/injection, schedule: Q04DX003 (ip), vehicle: saline 99 % of control | dose: 25.0 mg/kg/injection, schedule: Q04DX003 (ip), vehicle: saline 91 % of control

O=C1c2cscc2Cc2sccc21
inactive: [1] 95 % of control | [3] 92 % of control | [5] 88 % of control

O=C(Nc1cccc(Cl)c1)Oc1ccc(Cl)cc1Cl
inactive: dose: 100.0 mg/kg/injection, schedule: Q04DX002 (ip), vehicle: saline with Tween-80 96 % of control | dose: 200.0 mg/kg/injection, schedule: Q04DX002 (ip), vehicle: saline with Tween-80 100 % of control

Nc1nc2c(ncn2-c2ccc(OCCCc3ccccc3)cc2)c(=O)[nH]1
inactive: dose: 1.56 mg/kg/injection, schedule: Q01DX001 (ip), vehicle: saline with Tween-80 97 % of control | dose: 3.13 mg/kg/injection, schedule: Q01DX001 (ip), vehicle: saline with Tween-80 92 % of control | dose: 6.25 mg/kg/injection, schedule: Q01DX001 (ip), vehicle: saline with Tween-80 94 % of control and 87 % of control | dose: 25.0 mg/kg/injection, schedule: Q01DX001 (ip), vehicle: saline with Tween-80 92 % of control and 91 % of control

Cc1cc(NCC(=O)NN)ccc1Cl
inactive: dose: 50.0 mg/kg/injection, schedule: Q04DX002 (ip), vehicle: Klucel (hydroxypropylcellulose) (HPC) 103 % of control | [12] 104 % of control and 114 % of control | [13] 86 % of control

CC1SC(=S)N(c2ccc(Cl)cc2)C1=O (centres undefined)
inactive: [14] 115 % of control | [15] 98 % of control | [16] 110 % of control | [17] 106 % of control

CC(C)(CO)N=Cc1cc([N+](=O)[O-])ccc1O
inactive: [18] 110 % of control | [19] 107 % of control | [20] 110 % of control

CCOc1ccc(Cl)cc1C1N(Cc2ccccc2OC)CCCN1Cc1ccccc1OC
inactive: [6] 87 % of control | [8] 93 % of control | [10] 91 % of control

O=C1c2cc(-c3ccccc3)c(-c3ccccc3)cc2C(c2ccccc2)(c2ccccc2)C1Br (centres undefined)
inactive: [7] 94 % of control | [9] 91 % of control | [11] 93 % of control

COC(=O)/C=C(\C)Sc1ccc(Cl)cc1
inactive: dose: 100.0 mg/kg/injection, schedule: Q04DX002 (ip), vehicle: other 91 % of control | dose: 200.0 mg/kg/injection, schedule: Q04DX002 (ip), vehicle: other 98 % of control | dose: 400.0 mg/kg/injection, schedule: Q04DX002 (ip), vehicle: other 102 % of control

CN1C(=O)N(C)C(=O)C2(C1=O)C1(C(=O)N(C)C(=O)N(C)C1=O)C21C(=O)N(C)C(=O)N(C)C1=O
inactive: [12] 102 % of control | [13] 100 % of control | dose: 400.0 mg/kg/injection, schedule: Q04DX002 (ip), vehicle: Klucel (hydroxypropylcellulose) (HPC) 89 % of control

O=c1cc(Br)c(=O)c2cc(Br)cc(Br)c2[nH]1
inactive: dose: 25.0 mg/kg/injection, schedule: Q01DX009 (ip), vehicle: Klucel (hydroxypropylcellulose) (HPC) 95 % of control | dose: 50.0 mg/kg/injection, schedule: Q01DX009 (ip), vehicle: Klucel (hydroxypropylcellulose) (HPC) 98 % of control | [14] 90 % of control | [15] 98 % of control | [16] 87 % of control | [17] 106 % of control | [21] 89 % of control | [22] 88 % of control

C[N+](C)(C)/N=C/c1ccc(Cl)cc1
inactive: dose: 5.0 mg/kg/injection, schedule: Q01DX001 (ip), vehicle: carboxymethylcellulose (CMC) 98 % of control | dose: 10.0 mg/kg/injection, schedule: Q01DX001 (ip), vehicle: carboxymethylcellulose (CMC) 104 % of control | dose: 20.0 mg/kg/injection, schedule: Q01DX001 (ip), vehicle: carboxymethylcellulose (CMC) 95 % of control | dose: 40.0 mg/kg/injection, schedule: Q01DX001 (ip), vehicle: carboxymethylcellulose (CMC) 104 % of control

CN(CCCCN(C)P(=O)(N1CC1)N1CC1)P(=O)(N1CC1)N1CC1
inactive: [6] 88 % of control

O=[N+]([O-])c1ccc2c(N=Nc3ccc4ccccc4c3O)c(O)cc(S(=O)(=O)O)c2c1
inactive: dose: 50.0 mg/kg/injection, schedule: Q04DX003 (ip), vehicle: carboxymethylcellulose (CMC) 94 % of control | dose: 100.0 mg/kg/injection, schedule: Q04DX003 (ip), vehicle: carboxymethylcellulose (CMC) 93 % of control | dose: 200.0 mg/kg/injection, schedule: Q04DX003 (ip), vehicle: carboxymethylcellulose (CMC) 102 % of control

CC(C)OP(=O)(NC12CC3CC(CC(C3)C1)C2)OC(C)C
inactive: [14] 103 % of control | [15] 95 % of control | [16] 100 % of control | [17] 96 % of control | [21] 90 % of control | [22] 100 % of control

CCOC(=O)C(Cc1ccc(O)cc1)NC(=O)C(N)CSSCC(N)C(=O)NC(Cc1ccc(O)cc1)C(=O)OCC (stereo not drawn) (I: H-Cys-Tyr-OEt / II: H-Cys-Tyr-OEt; disulfide I:1-II:1; configuration not given here)
inactive: [18] 97 % of control | [19] 105 % of control | [20] 94 % of control

Fc1ccc(N=C2c3ccccc3-c3ccccc32)cc1
inactive: [7] 93 % of control | [9] 93 % of control | [11] 95 % of control

N#CC(C(N)=O)c1ccccc1 (centres undefined)
inactive: dose: 25.0 mg/kg/injection, schedule: Q01DX009 (ip), vehicle: saline with Tween-80 86 % of control | dose: 25.0 mg/kg/injection, schedule: Q04DX003 (ip), vehicle: saline with Tween-80 99 % of control | dose: 50.0 mg/kg/injection, schedule: Q01DX009 (ip), vehicle: saline with Tween-80 94 % of control | dose: 50.0 mg/kg/injection, schedule: Q04DX003 (ip), vehicle: saline with Tween-80 100 % of control | [2] 90 % of control | [7] 98 % of control and 100 % of control

CCOC(=O)N1CCN2C(=O)N(CC)CCC2C1 (centres undefined)
inactive: [18] 93 % of control | [19] 93 % of control | [20] 94 % of control

O=P1(Cc2ccccc2)C(c2ccccc2)=C(O)CC1c1ccccc1 (centres undefined)
inactive: [15] 101 % of control | [17] 99 % of control | [22] 89 % of control
